Results reported in patent publication US8217085B2 (priority 2009, dated 2012).
“And” between values parts separate entries of the source, which are not always exact repeats. Identical values can stand only once. Like-named read-outs stand apart in the source and are kept apart here.

How the values were obtained:
[1] = test system: ATCC strain 43300 Staphylococcus aureus; format: cell-based
[2] = room temperature; cited from earlier work
[3] = test system: ATCC strain 43300 Staphylococcus aureus
Procedure: Additional antibiotic was added every 24 hours.
USP<51> Antimicrobial Effectiveness protocol was used as the template experimental paradigm. […] All concentrations were plated out to the 10^−7 dilutionsto ascertain cfu/ml. […] Additional antibiotic was added at the initial concentration every 24 hours.
ATCC strain 43300 Staphylococcus aureus was streaked out for isolations. An isolated colony was chosen, streaked again and incubated. Isolate was chosen and then diluted to a McFarland standard of one. The estimated value was then taken to inoculate tubes containing growth media and 12, 30 or 60 μg/ml oxacillin with approximately 10^5 cfu/ml. These tubes were incubated and plated for counting cfu.
Material was calculated on a 10 ml volume. Sterile oxacillin was added to each experimental condition to a final concentration of 12, 30 or 60 μg/ml antibiotic.
All tubes were then inoculated with a dilution of the selected ATCC strain 43300 Staphylococcus aureus clone giving a final level of colony forming units of 3.3×10^5/ml (log=5.52). The tubes were incubated at 25° C. and mixed periodically. Antibiotic was re-inoculated every 24 hours at the initial concentration to maintain pressure on the organism. Plating was done at 24, 48, 72, and 120 hours. Each condition was plated by diluting 1 ml of growth material into 9 ml of MLB diluent broth. […] This mixture was serial diluted down to 10^−7 with 1 ml placed in triplicate in a sterile petri dish at each dilution point. 20 mls of TSA was added to each dilution, swirled and allowed to solidify. All dilutions were placed in a 35° C. incubator for 24 to 72 hours. Bacterial colonies on each plate were counted and the average taken then changed into log format. Any cfu/ml observed greater than 3.3×10^5 (log=5.5) were recorded as >3.3×10^5.

[4] = 5% MSM, 12 μg/ml oxacillin, 24 hours
[5] = 5% MSM, 30 μg/ml oxacillin, 24 hours
[6] = 5% MSM, 60 μg/ml oxacillin, 24 hours
[7] = 6% MSM, 12 μg/ml oxacillin, 24 hours
[8] = 6% MSM, 30 μg/ml oxacillin, 24 hours
[9] = 6% MSM, 60 μg/ml oxacillin, 24 hours
[10] = 7% MSM, 12 μg/ml oxacillin, 24 hours
[11] = 7% MSM, 30 μg/ml oxacillin, 24 hours
[12] = 7% MSM, 60 μg/ml oxacillin, 24 hours
[13] = 8% MSM, 12 μg/ml oxacillin, 24 hours
[14] = 8% MSM, 30 μg/ml oxacillin, 24 hours
[15] = 8% MSM, 60 μg/ml oxacillin, 24 hours
[16] = 9% MSM, 12 μg/ml oxacillin, 24 hours
[17] = 9% MSM, 30 μg/ml oxacillin, 24 hours
[18] = 9% MSM, 60 μg/ml oxacillin, 24 hours
[19] = 10% MSM, 12 μg/ml oxacillin, 24 hours
[20] = 10% MSM, 12 μg/ml oxacillin, 48 hours
[21] = 10% MSM, 30 μg/ml oxacillin, 24 hours
[22] = 10% MSM, 60 μg/ml oxacillin, 24 hours
[23] = 11% MSM, 12 μg/ml oxacillin, 24 hours

Structure (SMILES): CS(C)(=O)=O [MSM, methylsulfonylmethane]
- recovery of MRSA after enrichment ([1]; 5% MSM, 60 μg/ml methicillin, 72 hours): true total kill
- recovery of MRSA after enrichment ([1]; 6% MSM, 12 μg/ml methicillin, 72 hours): true total kill
- recovery of MRSA after enrichment ([1]; 6% MSM, 60 μg/ml methicillin, 72 hours): true total kill
- recovery of MRSA after enrichment ([1]; 7% MSM, 12 μg/ml methicillin, 72 hours): true total kill
- recovery of MRSA after enrichment ([1]; 8% MSM, 12 μg/ml methicillin, 96 hours): true total kill
- recovery of MRSA after enrichment ([1]; 10% MSM, 30 μg/ml methicillin, 120 hours): true total kill
- recovery of MRSA after enrichment ([1]; 11% MSM, 30 μg/ml methicillin, 120 hours): true total kill
- recovery of MRSA after enrichment ([1]; 11% MSM, 60 μg/ml methicillin, 120 hours): true total kill
- recovery of MRSA after enrichment ([1]; 12% MSM, 30 μg/ml methicillin, 120 hours): true total kill
- recovery of MRSA after enrichment ([1]; 12% MSM, 60 μg/ml methicillin, 120 hours): true total kill
- recovery of MRSA after enrichment ([1]; 14% MSM, 60 μg/ml methicillin, 120 hours): true total kill
- recovery of MRSA after enrichment ([1]; 15% MSM, 60 μg/ml methicillin, 120 hours): true total kill
- recovery of MRSA after enrichment ([1]; 16% MSM, 30 μg/ml methicillin, 120 hours): true total kill
- water solubility [2]: ≥ 20%
- Average Log [3, 4]: 3.91 Log
- survival [3, 4]: 8.4 × 10^3 cfu/ml and 8.0 × 10^3 cfu/ml
- Average Log ([3]; 5% MSM, 12 μg/ml oxacillin, 48 hours): 3.6 Log
- Average Log ([3]; 5% MSM, 12 μg/ml oxacillin, 72 hours): 5.5 Log
- Average Log [3, 5]: 2.51 Log
- survival [3, 5]: 3.1 × 10^2 cfu/ml and 3.3 × 10^2 cfu/ml
- Average Log ([3]; 5% MSM, 30 μg/ml oxacillin, 48 hours): 3.8 Log
- Average Log ([3]; 5% MSM, 30 μg/ml oxacillin, 72 hours): 5.5 Log
- Average Log [3, 6]: 2.54 Log
- survival [3, 6]: 3.5 × 10^2 cfu/ml and 3.3 × 10^2 cfu/ml and 3.6 × 10^2 cfu/ml
- Average Log ([3]; 5% MSM, 60 μg/ml oxacillin, 48 hours): 3.5 Log
- growth ([3]; 5%, 10% and 16% MSM, no antibiotic, 24 hours): turbid growth
- Average Log [3, 7]: 3.92 Log
- survival [3, 7]: 8.6 × 10^3 cfu/ml and 8.5 × 10^3 cfu/ml and 8.0 × 10^3 cfu/ml
- Average Log ([3]; 6% MSM, 12 μg/ml oxacillin, 48 hours): 3.2 Log
- Average Log ([3]; 6% MSM, 12 μg/ml oxacillin, 72 hours): 5.5 Log
- Average Log [3, 8]: 2.46 Log
- survival [3, 8]: 2.9 × 10^2 cfu/ml
- Average Log ([3]; 6% MSM, 30 μg/ml oxacillin, 48 hours): 3.7 Log
- Average Log ([3]; 6% MSM, 30 μg/ml oxacillin, 72 hours): 5.5 Log
- Average Log [3, 9]: 2.38 Log
- survival [3, 9]: 2.4 × 10^2 cfu/ml
- Average Log ([3]; 6% MSM, 60 μg/ml oxacillin, 48 hours): 1.8 Log
- Average Log [3, 10]: 3.91 Log
- survival [3, 10]: 8.2 × 10^3 cfu/ml and 8.5 × 10^3 cfu/ml and 8.3 × 10^3 cfu/ml
- Average Log ([3]; 7% MSM, 12 μg/ml oxacillin, 48 hours): 3.9 Log
- Average Log ([3]; 7% MSM, 12 μg/ml oxacillin, 72 hours): 5.5 Log
- Average Log [3, 11]: 2.98 Log
- survival [3, 11]: 9.7 × 10^2 cfu/ml and 9.6 × 10^2 cfu/ml and 9.2 × 10^2 cfu/ml
- Average Log ([3]; 7% MSM, 30 μg/ml oxacillin, 48 hours): 2.3 Log
- Average Log ([3]; 7% MSM, 30 μg/ml oxacillin, 72 hours): 4.5 Log
- Average Log [3, 12]: 2.34 Log
- survival [3, 12]: 2.1 × 10^2 cfu/ml and 2.3 × 10^2 cfu/ml
- Average Log ([3]; 7% MSM, 60 μg/ml oxacillin, 48 hours): 4.0 Log
- Average Log [3, 13]: 3.82 Log
- survival [3, 13]: 6.6 × 10^3 cfu/ml and 6.9 × 10^3 cfu/ml
- Average Log ([3]; 8% MSM, 12 μg/ml oxacillin, 48 hours): 3.7 Log
- Average Log ([3]; 8% MSM, 12 μg/ml oxacillin, 72 hours): 5.5 Log
- Average Log [3, 14]: 3.07 Log
- survival [3, 14]: 1.18 × 10^3 cfu/ml and 1.16 × 10^3 cfu/ml
- Average Log ([3]; 8% MSM, 30 μg/ml oxacillin, 48 hours): 3.1 Log
- Average Log ([3]; 8% MSM, 30 μg/ml oxacillin, 72 hours): 5.5 Log
- Average Log [3, 15]: 2.67 Log
- survival [3, 15]: 4.6 × 10^2 cfu/ml and 5.0 × 10^2 cfu/ml
- Average Log ([3]; 8% MSM, 60 μg/ml oxacillin, 48 hours): 2.8 Log
- Average Log [3, 16]: 3.72 Log
- survival [3, 16]: 5.6 × 10^3 cfu/ml and 5.2 × 10^3 cfu/ml and 5.0 × 10^3 cfu/ml
- Average Log ([3]; 9% MSM, 12 μg/ml oxacillin, 48 hours): 3.4 Log
- Average Log ([3]; 9% MSM, 12 μg/ml oxacillin, 72 hours): 4.5 Log
- Average Log [3, 17]: 3.01 Log
- survival [3, 17]: 1.06 × 10^3 cfu/ml and 1.05 × 10^3 cfu/ml and 1.02 × 10^3 cfu/ml
- Average Log ([3]; 9% MSM, 30 μg/ml oxacillin, 48 hours): 2.4 Log
- Average Log ([3]; 9% MSM, 30 μg/ml oxacillin, 72 hours): 2.9 Log
- Average Log [3, 18]: 2.50 Log
- survival [3, 18]: 3.2 × 10^2 cfu/ml
- Average Log ([3]; 9% MSM, 60 μg/ml oxacillin, 48 hours): 2.2 Log
- Average Log [3, 19]: 3.76 Log
- survival [3, 19]: 5.8 × 10^3 cfu/ml and 5.6 × 10^3 cfu/ml and 6.0 × 10^3 cfu/ml
- Average Log [3, 20]: 2.7 Log
- survival [3, 20]: 5.6 × 10^2 cfu/ml
- Average Log ([3]; 10% MSM, 12 μg/ml oxacillin, 72 hours): 4.0 Log
- Average Log [3, 21]: 3.32 Log
- survival [3, 21]: 2.2 × 10^3 cfu/ml and 2.0 × 10^3 cfu/ml
- Average Log ([3]; 10% MSM, 30 μg/ml oxacillin, 48 hours): 2.6 Log
- Average Log ([3]; 10% MSM, 30 μg/ml oxacillin, 72 hours): 3.9 Log
- Average Log [3, 22]: 2.63 Log
- survival [3, 22]: 4.2 × 10^2 cfu/ml and 4.4 × 10^2 cfu/ml
- Average Log ([3]; 10% MSM, 60 μg/ml oxacillin, 48 hours): 2.2 Log
- Average Log [3, 23]: 3.91 Log
- survival [3, 23]: 8.2 × 10^3 cfu/ml and 8.5 × 10^3 cfu/ml and 8.0 × 10^3 cfu/ml
